This note sets out measurements from patent publication US20080275134A1, “Methods for Treatment of Retinal Degenerative Disease” (University of Washington, priority 2005, published 2008).

A short description of data set [1]: HPLC and mass spectrometry analysis of liver samples of treated mice. It counts as in vivo, mouse. From the text: Next, the RA oxidation pathway was investigated. […] In addition to secretion, Ret-NH2 might be degraded first by deamination to all-trans-retinol/retinal, which was seen to increase in Ret-NH2 treated cells. […] These observations explain the long-lasting effect of RetNH2, as the amide is stored and hydrolyzed back to the free amine.

Data set [2] deals with visual function (a-wave and b-wave). Description: single flash ERG responses of treated mice. In kind it is in vivo, mouse. As to the method: A. Chromatographic separation of nonpolar retinoids from WT mouse eyes. Mice were gavaged with all-trans-Ret-NH2 24 hours prior to bleaching for 20 min at 150 cd·m^−2 W in the Ganzfeld chamber. Regeneration of 11-cis-retinal was allowed for 24 hours in the dark, and retinoids were extracted from the eye and separated by normal phase HPLC as described in Materials and Methods. The peaks were identified based on elution time and absorption spectra correspond to the following retinoids: 1, all-trans-retinyl esters; 2,2′, syn- and anti-11-cis-retinal oximes; 3, syn-all-trans-retinal oxime; 4,4′, syn- and anti-9-cis-retinal oximes; 5, all-trans-retinol. B. Changes of 11-cis-retinal oxime levels at increasing doses of all-trans-Ret-NH2 during 5 hours or 24 hours of dark adaptation. Square indicates the level of 11-cis-retinal oximes that was present in mice gavaged with vegetable oil without retinoids just after bleaching, and arrow indicates the increase of visual chromophore during 5 hours of dark adaptation. Triangles correspond to the level of 11-cis-retinal found in the mice gavaged with 50 mg/kg of 13-cis-RA. C and D. Single flash ERG responses of increasing intensity for all-trans-Ret-NH2 treated mice and control mice. Serial responses to increasing flash stimuli were obtained for all-trans-Ret-NH2 treated and control mice for selected intensities (C) and plotted as a function of a-wave and b-wave versus varying light intensities under dark-adapted conditions (D) before bleach and at 5 hours and 24 hours after bleach. The dark-adapted mice were bleached with intense constant illumination (150 cd·m^−2) for 20 min. […] SE bars are shown. […]
The conclusions derived from the analysis of retinoids of Ret-NH2-treated mice were supported by ERG analysis of visual functions. […] Next, the impact of all-trans-Ret-NH2 administration on the visual physiology of wild-type mice was evaluated in vivo with ERGs. […]

Entries after “also recorded” stand apart in the source; their conditions may differ.

Take `CC1=C(/C=C/C(C)=C/C=C/C(C)=C/CN)C(C)(C)CCC1` [Ret-NH2, Retinylamine]: the “metabolite found in liver” value in data set [1] is listed as “amidated to N-retinylpalmitamide”.
In the case of `CC1=C(/C=C/C(C)=C/C=C/C(C)=C/CN)C(C)(C)CCC1` [all-trans-Ret-NH2, all-trans-retinylamine], the “dark-adapted ERG a- and b-wave responses after bleach” value in data set [2] (50 mg/kg single dose, 20 min bleach, 5 and 24 hours after, P<0.0001 vs control) is given as “significantly attenuated”. Besides, the “light-adapted (photopic) ERG responses, cone function” value in data set [2] (50 mg/kg single dose, before and 5 and 24 hours after bleach, p>0.1 vs control) is on record as “attenuated weakly; also recorded: not affected by all-trans-Ret-NH2 to the same extent as rod function”. For the same molecule, in data set [2] (24 hours after 50 mg/kg gavage), the “dark-adapted ERG before bleach” value is “normal waveforms and responses”.
